In ChEMBL document CHEMBL5625245, “Novel ProTide prodrugs of 5-fluoro-2'-deoxyuridine for the treatment of liver cancer” (Eur J Med Chem, 2023):
Values after ≈ are worked out from the molar mass of the structure shown.

Key:
HepG2 [1] = assay: Antiproliferative activity against human HepG2 cells assessed as reduction in cell viability measured after 48 to 72 hrs by MTT assay; assay type: functional, cell-based
[2] = Antiproliferative activity against human NCM460 cells assessed as reduction in cell viability measured after 48 to 72 hrs by MTT assay; assay type: toxicity, cell-based
HepG2 [3] = assay: Antitumor activity against human HepG2 cells xenografted in orthotopic mouse model assessed as average number of tumor at 15 mg/kg, iv administered twice daily for 18 days (reference value: 49+/3.6 mM); assay type: functional; settings: time 18 day
[4] = Antiproliferative activity against human L02 cells assessed as reduction in cell viability measured after 48 to 72 hrs by MTT assay; assay type: toxicity, cell-based
Bel-7402 [5] = assay: Antiproliferative activity against human Bel-7402 cells assessed as reduction in cell viability measured after 48 to 72 hrs by MTT assay; assay type: functional, cell-based
HepG2 [6] = assay: Antiproliferative activity against human HepG2 cells assessed as reduction in cell viability at 20 uM measured after 48 hrs by MTT assay relative to control; assay type: functional
HepG2 [7] = assay: Antitumor activity against human HepG2 cells xenografted in orthotopic mouse model assessed as tumor growth inhibition at 15 mg/kg, iv administered twice daily for 18 days relative to control; assay type: functional; settings: HepG2, 432 h, time 18 day, read-out: TGI
[8] = Solubility of the compound in 2% DMSO/8% tween80/90% saline at 25 degreeC by HPLC analysis; assay type: physicochemical
[9] = Solubility of the compound in 5% DMSO/8% Tween80/87% saline at 25 degreeC by HPLC analysis; assay type: physicochemical
[10] = Metabolic stability in human plasma assessed as half life at 1 mg/ml measured upto 72 hrs by HPLC analysis; assay type: ADME, cell-free
HepG2 [11] = assay: Antitumor activity against human HepG2 cells xenografted in orthotopic mouse model assessed as average number of tumor at 60 mg/kg, iv administered twice daily for 18 days in presence of 5-Fluorouracil (reference value: 49+/3.6 mM); assay type: functional; settings: time 18 day
[12] = Toxicity in orthotopic mouse assessed as effect on liver at 60 mg/kg, iv administered twice daily for 18 days by H and E staining based analysis; assay type: organism-based; settings: in vivo, 432 h, time 18 day
[13] = (§1) Drug metabolism in rat liver homogenate assessed as formation of (2S)-2-[[[(2R,3S,5R)-3-[(2S)-1-[(2S)-2-(tert-butoxycarbonylamino)-3-methyl-butanoyl]pyrrolidine-2-carbonyl]oxy-5-(5-fluoro-2,4-dioxo-pyrimidin-1-yl)tetrahydrofuran-2-yl]methoxy-hydroxy-phosphoryl]amino]propanoic acid measured after 20 mins; assay type: ADME, tissue-based; settings: tissue homogenate
[14] = as §1, with “120” for “20”; assay type: ADME, tissue-based; settings: tissue homogenate, 2 h
[15] = Solubility of the compound in 5% DMSO/10% cremophor EL/85% saline at 25 degreeC by HPLC analysis; assay type: physicochemical
[16] = Solubility of the compound in 5% PEG300/95% saline at 25 degreeC by HPLC analysis; assay type: physicochemical
[17] = Metabolic stability in rat liver homogenates assessed as half life at 1 mg/ml measured after 4 hrs by HPLC analysis; assay type: ADME, tissue-based
[18] = Toxicity in orthotopic mouse assessed as effect on heart at 60 mg/kg, iv administered twice daily for 18 days by H and E staining based analysis; assay type: organism-based; settings: in vivo, 432 h, time 18 day
[19] = Toxicity in orthotopic mouse assessed as effect on kidney at 60 mg/kg, iv administered twice daily for 18 days by H and E staining based analysis; assay type: organism-based; settings: in vivo, 432 h, time 18 day
[20] = Toxicity in orthotopic mouse assessed as effect on body weight at 60 mg/kg, iv administered twice daily for 18 days; assay type: organism-based; settings: in vivo, 432 h, time 18 day
[21] = Selectivity index, ratio of IC50 for human L02 cells to IC50 for human Bel-7402 cells; assay type: toxicity; settings: L02 cells and Bel-7402 cells, read-out: Ratio IC50
[22] = Selectivity index, ratio of IC50 for human L02 cells to IC50 for human HepG2 cells; assay type: toxicity; settings: L02 cells and HepG2 cells, read-out: Ratio IC50
[23] = Toxicity in orthotopic mouse assessed as change in liver weight at 60 mg/kg, iv administered twice daily for 18 days; assay type: organism-based; settings: in vivo, 432 h, time 18 day
[24] = Solubility of the compound in 5% DMSO/95% saline at 25 degreeC by HPLC analysis; assay type: physicochemical
[25] = Solubility of the compound in 2% DMSO/10% tween80/88% saline at 25 degreeC by HPLC analysis; assay type: physicochemical
[26] = Solubility of the compound in 5% DMSO/10% Tween80/85% saline at 25 degreeC by HPLC analysis; assay type: physicochemical
[27] = Toxicity in orthotopic mouse assessed as effect on spleen at 60 mg/kg, iv administered twice daily for 18 days by H and E staining based analysis; assay type: organism-based; settings: in vivo, 432 h, time 18 day
Bel-7402 [28] = assay: Antiproliferative activity against human Bel-7402 cells assessed as reduction in cell viability at 20 uM measured after 48 hrs by MTT assay relative to control; assay type: functional
[29] = Metabolic stability in rat plasma assessed as half life at 1 mg/ml measured upto 72 hrs by HPLC analysis; assay type: ADME, cell-free
HepG2 [30] = assay: Antitumor activity against human HepG2 cells xenografted in orthotopic mouse model assessed as tumor growth inhibition at 60 mg/kg, iv administered twice daily for 18 days in presence of 5-Fluorouracil relative to control; assay type: functional; settings: HepG2, 432 h, time 18 day, read-out: TGI
[31] = Solubility of the compound in 5% DMSO/10% PEG300/85% saline at 25 degreeC by HPLC analysis; assay type: physicochemical
[32] = Toxicity in orthotopic mouse assessed as effect on drug tolerance at 60 mg/kg, iv administered twice daily for 18 days; assay type: organism-based; settings: in vivo, 432 h, time 18 day
[33] = Solubility of the compound in 100% saline at 25 degreeC by HPLC analysis; assay type: physicochemical
[34] = Solubility of the compound in 5% PBS/95% saline at 25 degreeC by HPLC analysis; assay type: physicochemical
[35] = Toxicity in orthotopic mouse assessed as effect on lung at 60 mg/kg, iv administered twice daily for 18 days by H and E staining based analysis; assay type: organism-based; settings: in vivo, 432 h, time 18 day
[36] = Drug metabolism in rat liver homogenate assessed as (2S)-2-[[[(2R,3S,5R)-3-[(2S)-2-(tert-butoxycarbonylamino)propanoyl]oxy-5-(5-fluoro-2,4-dioxo-pyrimidin-1-yl)tetrahydrofuran-2-yl]methoxy-hydroxy-phosphoryl]amino]propanoic acid formation measured upto 90 mins; assay type: ADME, tissue-based; settings: tissue homogenate, 1.5 h

Compound | IC50 (HepG2 [1]) [µM] | IC50 [2] [µM] | IC50 [4] [µM] | IC50 (Bel-7402 [5]) [µM] | Activity (HepG2 [6]) [%] | solubility [8] [mg/mL] | solubility [9] [mg/mL] | half-life at 1 mg/ml [10] [h] | tumour count (HepG2 [11]) | Activity [12] | solubility [15] [mg/mL] | solubility [16] [mg/mL] | half-life at 1 mg/ml [17] [h] | Activity [18] | Activity [19] | Activity [20] | selectivity ratio [21] | selectivity ratio [22] | Activity [23] | solubility [24] [mg/mL] | also measured
O=c1[nH]cc(F)c(=O)[nH]1 [FLUOROURACIL] | > 100 | > 100 | > 100 | 36.5 | 8.31 | – | – | – | – | – | – | – | – | – | – | – | – | – | – | – | Activity (HepG2 [3]): 49 mM; inhibition in vivo at 15 mg/kg (HepG2 [7]): 0%
CC(C)OC(=O)[C@H](C)N[P@](=O)(OC[C@H]1O[C@@H](n2cc(F)c(=O)[nH]c2=O)C[C@@H]1OC(=O)[C@@H]1CCCN1C(=O)[C@@H](NC(=O)OC(C)(C)C)C(C)C)Oc1ccccc1 | 0.54 | > 100 | > 100 | 0.81 | 75.24 | < 5 | 5 (≈ 6.16 mM) | > 48 | 35 | Non-Toxic | 5 (≈ 6.16 mM) | < 1 | 1.63 | Non-Toxic | Non-Toxic | Non-Toxic | 205 | 307 | Toxic | < 1 | Drug metabolism [13]: Metabolite_Detected; Drug metabolism [14]: Metabolite_Detected; solubility [25]: > 10 mg/mL; solubility [26]: > 10 mg/mL; Activity [27]: Non-Toxic; Activity (Bel-7402 [28]): >70%; half-life at 1 mg/ml [29]: > 48 h; inhibition in vivo at 60 mg/kg (HepG2 [30]): 28.6%; solubility [31]: < 1 mg/mL; Activity [32]: Non-Toxic; solubility [33]: < 1 mg/mL; solubility [34]: < 1 mg/mL; Activity [35]: Non-Toxic
CC(C)OC(=O)[C@H](C)N[P@](=O)(OC[C@H]1O[C@@H](n2cc(F)c(=O)[nH]c2=O)C[C@@H]1OC(=O)[C@H](C)NC(=O)OC(C)(C)C)Oc1ccccc1 | 0.42 | > 100 | > 100 | 0.79 | 83.61 | < 5 | 5 (≈ 7.28 mM) | > 48 | 12 | Non-Toxic | 5 (≈ 7.28 mM) | < 1 | 0.16 | Non-Toxic | Non-Toxic | Non-Toxic | 165 | 310 | Toxic | < 1 | solubility [25]: > 10 mg/mL; solubility [26]: > 10 mg/mL; Activity [27]: Non-Toxic; Activity (Bel-7402 [28]): 82.19%; half-life at 1 mg/ml [29]: > 48 h; inhibition in vivo at 60 mg/kg (HepG2 [30]): 75.5%; solubility [31]: < 1 mg/mL; Activity [32]: Non-Toxic; solubility [33]: < 1 mg/mL; solubility [34]: < 1 mg/mL; Activity [35]: Non-Toxic; Drug metabolism [36]: Metabolite_Detected
